Consider 19 compounds from US6869945B2, “Pyrrolyl-and imidazolyl-acid amide derivatives useful as inhibitors of PDE4 isozymes” (Pfizer Inc, priority 2001, dated 2005).

For series [1] the following is noted: in vivo; cited from earlier work.
For another series, the system named is PDE4. Particulars: catalytic site (Sc); cited from earlier work.
For series [2] the following is noted: cited from earlier work.
The conditions of series [3]: 54 subjects; cited from earlier work.
Series [4] relates to rhinorrhea in the antigen-challenged pig. Conditions: cited from earlier work.
Series [5] relates to LPS-stimulated ex vivo TNF release and PHA induced lymphocyte proliferation. Particulars: oral dose of 300 mg, cited from earlier work.
In the next series the test system is guinea-pig trachea. Particulars: cited from earlier work.
The subject of series [6] is guinea-pig macrophage PDE4. Particulars: cited from earlier work.
Series [7] deals with dextran sulfate induced colitis. Conditions: cited from earlier work; for effects in dextran sulfate induced colitis: rat.
For a further series, the system named is TNF-α mRNA expression. Conditions: mouse, in vivo; cited from earlier work.
For series [8] the following is noted: 35 rheumatoid arthritis patients, t.i.d.; cited from earlier work.
A further series relates to epidermal basal cells. Conditions: primary culture; cited from earlier work.
For series [9], the system named is psoriatic epidermal slices and keratomed psoriatic epidermal slices. Particulars: cited from earlier work.
The conditions of series [10]: in vivo; cited from earlier work. This is another data set of the same source.
For series [11], the system named is human peripheral blood mononuclear cells. Particulars: cited from earlier work.
Series [12] has as its system endotoxin-induced acute renal failure. Particulars: cited from earlier work.
For series [13] the following is noted: 15 mg twice a day for six weeks; cited from earlier work.
The test system of series [14] is isolated pulmonary artery rings. Particulars: normal rats and rats with hypoxia-induced pulmonary hypertension; cited from earlier work.
Series [15] concerns croton oil-induced ear inflammation. Conditions: mouse; cited from earlier work.
In series [16] the test system is collagen II induced arthritis. Conditions: 2 mg/kg twice daily for five days before the onset of arthritis; cited from earlier work.
Series [17] concerns experimental allergic encephalomyelitis. Conditions: in vivo; cited from earlier work.

Entries after “also recorded” stand apart in the source; their conditions may differ.

Regarding `Nc1nc2c([nH]1)c(=O)n(CC1CC1)c(=O)n2CC1CC1` [BRL-61,063, cipamfylline], the “emesis / nausea and vomiting” value in series [1] was “adverse events of nausea and vomiting”. For the compound `COc1ccc([C@H](Cc2ccncc2)c2ccccc2)cc1OC1CCCC1` [CDP840], in the series on PDE4, the “potency at the Sc relative to SB-207,499” value is “significantly higher potency”. Besides, the “late reactions to inhaled allergen / late-phase response” value in series [2] (patients with bronchial asthma, oral) is recorded as “suppression; also recorded: significant inhibition”. The adverse events entry in [2] (treatment of asthma) is “without any adverse events of nausea or headache”. Take `Cc1cc2c3c(c1)C(c1ccccc1)=N[C@@H](NC(=O)c1ccncc1)C(=O)N3CC2` [CI-1018]: in [3], the “doses at which no adverse events were reported” value is reported as “up to 400 mg”. For orientation: melting point means the temperature, or range, at which the solid turns liquid. Consider `CC(C)(O)c1ccc(CNC(=O)c2scnc2Oc2ccc3c(c2)OCO3)c(F)c1` [Example 5, 4-(Benzo[1,3]dioxol-5-yloxy)-thiazole-5-carboxylic acid 2-fluoro-4-(1-hydroxy-1-methyl-ethyl)-benzylamide], for which the melting point lay within 117 to 118 °C.

In the case of `CCCC1C(=O)C2=C(C(CC)=NC2C)c2nc(OC)ccc21` [Example D-22888], the rhinorrhea entry in series [4] (antigen-challenged pig) was “inhibit rhinorrhea”. Besides, the anti-allergic effect result in [4] (pig, in vivo) is “strong anti-allergic affect”.

Turning to `CCNc1ncn(Cc2ccc(OC)c(OC3CCCC3)c2)c2nc(C(C)C)nc1-2` [Example V-11294A], in [5] (LPS-stimulated ex vivo TNF release), the “reduction of TNF levels” value is recorded as “effective”. Besides, the “reduction of lymphocyte proliferation” value in series [5] (PHA induced) was “effective”.

For `O=S1(=O)CCN(c2nc(NC3CC3)nc(C3CC3)n2)C1` [Formula (0.0.56)], in the series with guinea-pig trachea, the “relaxant activity in a guinea-pig trachea model” value is “potent relaxant agents”. `CC1CC1c1nc(NC2CC2)nc(N2CCOCC2)n1` (centres unmarked) [Formula (0.0.57)]: the “relaxant activity in a guinea-pig trachea model” value in the series with guinea-pig trachea is recorded as “potent relaxant agents”. By IC50 is commonly meant the point on the concentration scale where inhibition reaches its midpoint. Turning to `COc1ccc(S(=O)(=O)C(CCCCc2ccccc2)CC(=O)NO)cc1OC` (centres unmarked) [Formula (0.1.36)], the IC50 in series [6] is 1 nM. On to `COc1ccc(S(=O)(=O)C(CCCCc2ccccc2)C(C)C(=O)NO)cc1` (centres unmarked) [Formula (0.1.37)], for which the IC50 in series [6] was 30 nM. For `CCCn1c(=O)c2[nH]cnc2n(-c2ccc(Cl)cc2)c1=O` [LAS31025], the “effects in dextran sulfate induced colitis” value in series [7] was “beneficial effects comparable to prednisolone”. For `COc1ccc(C(=O)Nc2c(Cl)cncc2Cl)cc1OC1CCCC1` [RP73401], the “TNF-α mRNA expression at the pannus/cartilage interface of paw joints” value in the series with TNF-α mRNA expression was “decrease”. Also, in series [8], the “clinical effect, with reduction in C-reactive protein and IL-6 serum levels” value is listed as “positive trend towards clinical improvement”. Consider `COc1ccc(CC2CNC(=O)N2)cc1OC1CCCC1` (centres unmarked) [Ro 20-1724], for which the “increase in cAMP concentrations” value in the series on epidermal basal cells was “three-fold increase”. Moreover, in [9], the “cAMP concentrations over controls” value is “very marked elevation”. Also, in series [10], the adverse effects entry is “without adverse systemic or cutaneous effects” and the “psoriatic lesions compared with vehicle” value was “improve psoriatic lesions”. Take `COc1ccc(CC2CNC(=O)N2)cc1OC1CCCC1` (centres unmarked) [Ro-201724]: the “proliferation of HPBM from normal patients and subjects with atopic dermatitis” value (shortened to “proliferation of HPBM”) in series [11] was “concentration-related inhibition”. Further, in [12] (post-treatment at 10 μg/kg/min), the “endotoxin-induced increases in renal vascular resistance and decreases in renal blood flow and glomerular filtration rate” value was “markedly attenuates”; the “urinary cAMP excretion” value was “significantly increases”. For the same compound, the “survival rates for endotoxin-treated rats” value in [12] (rat, in vivo) is reported as “improve survival rates”. On to `COc1ccc([C@]2(C#N)CC[C@@H](C(=O)O)CC2)cc1OC1CCCC1` [SB-207,499], for which the “FEV1 and forced vital capacity (FVC)” value in series [13] was “increrases”. Regarding `CCCn1c(=O)c2[nH]cnc2n(-c2ccc(Cl)cc2)c1=O` [arofylline], the “effects in models of colitis in the rat” value in series [7] (in vivo) is “beneficial effects”.

As for `CCCCn1c(=O)c2c(ncn2CC(C)=O)n(CCCC)c1=O` [denbufylline], in [11], the “proliferation of HPBM” value was “concentration-related inhibition”.

Consider `Cc1[nH]c(=O)c(C#N)cc1-c1ccncc1` [milrinone], for which the “effect on relaxation of pulmonary artery rings” value in series [14] is listed as “same effect”. For `COc1ccc(C2CNC(=O)C2)cc1OC1CCCC1` (centres unmarked) [rolipram], in series [15], the “lowest topical dose inhibiting croton oil-induced ear inflammation” value is recorded as 0.03 mg per ear. Also, in series [16], the “appearance of arthritic symptoms” value was “significantly delayed”. Moreover, the “proliferation of HPBM” value in series [11] is “concentration-related inhibition”. In addition, the “clinical signs and MRI imaging” value in [17] was “suppress the appearance of clinical signs and abolish abnormalities in MRI imaging”. The “effects in dextran sulfate induced colitis” value in series [7] was “beneficial effects comparable to prednisolone”. Also, the “effect on relaxation of pulmonary artery rings” value in series [14] is “potentiates the relaxant activities of isoproterenol and forskolin”.
